# Laboratory results as given in paper PMC9094630, “Epidemiological Impact of GII.17 Human Noroviruses Associated With Attachment to Enterocytes” (Frontiers in Microbiology, 2022).
# Biological target: T1, GII.17 Kawasaki 308 variant VLP (E12905) (Norovirus GII.17, UniProt A0A0S2ZZA3)
# T1 construct: gene VP1
# Conditions: ligand as BSA conjugate (about 20 per BSA, multivalent), immobilized; VLP 2 ng/ul; HBS pH 7.4, 25 C; also ELISA (Figure 4A)
structure (smiles),measurement,value
CC(=O)N[C@H]1[C@H](O[C@H]2[C@@H](O)[C@@H](CO)O[C@@H](O[C@H]3[C@H](O)[C@@H](O)C(O)O[C@@H]3CO)[C@@H]2O)O[C@H](CO)[C@@H](O)[C@@H]1O[C@@H]1O[C@H](CO)[C@H](O)[C@H](O)[C@H]1O[C@@H]1O[C@@H](C)[C@@H](O)[C@@H](O)[C@@H]1O (stereo partly shown) [lacto-N-fucopentaose I],GII.17 variant / Kawasaki 308,255 RU
